Measured values from ChEMBL document CHEMBL2346501, “Synthesis and evaluation of coumarin derivatives as potential dual-action HIV-1 protease and reverse transcriptase inhibitors” (Bioorg Med Chem, 2013).

Columns and labels:
[1] = target: Human immunodeficiency virus type 1 reverse transcriptase (Human immunodeficiency virus 1) (UniProt Q72547); test: Inhibition of HIV1 reverse transcriptase at 50 uM relative to control
[2] = target: Human immunodeficiency virus type 1 reverse transcriptase (Human immunodeficiency virus 1, UniProt Q72547); test: Inhibition of HIV1 reverse transcriptase
Protease = Protease (Human immunodeficiency virus 1, UniProt Q9YQ12); test: Inhibition of HIV1 protease
Chain of Protease (Q9YQ12 whole entry): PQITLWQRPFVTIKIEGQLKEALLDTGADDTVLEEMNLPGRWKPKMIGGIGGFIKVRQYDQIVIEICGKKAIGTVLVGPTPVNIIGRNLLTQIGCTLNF

[3] = target: Protease (Human immunodeficiency virus 1) (UniProt Q9YQ12); test: Inhibition of HIV1 protease at 50 uM relative to control
Chain of Protease (Human immunodeficiency virus 1) (Q9YQ12 as listed by the source): as the sequence (Q9YQ12 whole entry) above

| Structure (SMILES) | inhibition [1] | IC50 [2] | IC50 (Protease) | inhibition [3] |
| --- | --- | --- | --- | --- |
| Cc1cn([C@H]2C[C@H](n3cc(CNCc4cc5cc(Cl)ccc5oc4=O)nn3)[C@@H](CO)O2)c(=O)[nH]c1=O | 24% | 102 µM | 24.8 µM | 56% |
| COc1cccc2cc(CN(Cc3ccccc3)C(=O)CNCc3cn([C@H]4C[C@H](n5cc(C)c(=O)[nH]c5=O)O[C@@H]4CO)nn3)c(=O)oc12 | 97% | 2.88 µM | 22.7 µM | 60% |
| Cc1cn([C@H]2C[C@H](n3cc(CNCC(=O)N(Cc4ccccc4)Cc4cc5ccccc5oc4=O)nn3)[C@@H](CO)O2)c(=O)[nH]c1=O | 96% | 3.4 µM | 35.1 µM | 52% |
| Cc1cn([C@H]2C[C@H](n3cc(CNCC(=O)N(Cc4ccccc4)Cc4cc5cc(Cl)ccc5oc4=O)nn3)[C@@H](CO)O2)c(=O)[nH]c1=O | 99% | 3.69 µM | 29.5 µM | 58% |
| CC(C)c1nc(CN(C)C(=O)N[C@H](C(=O)N[C@@H](Cc2ccccc2)C[C@H](O)[C@H](Cc2ccccc2)NC(=O)OCc2cncs2)C(C)C)cs1 |  |  |  | 72% |
| Cc1cn([C@H]2C[C@H](n3cc(CNCc4cc5cc(Br)ccc5oc4=O)nn3)[C@@H](CO)O2)c(=O)[nH]c1=O | 94% | 6.1 µM | 28.9 µM | 57% |
| COc1cccc2cc(CNCc3cn([C@H]4C[C@H](n5cc(C)c(=O)[nH]c5=O)O[C@@H]4CO)nn3)c(=O)oc12 | 29% | 106 µM | 21.6 µM | 64% |
| CCOc1cccc2cc(CN(Cc3ccccc3)C(=O)CNCc3cn([C@H]4C[C@H](n5cc(C)c(=O)[nH]c5=O)O[C@@H]4CO)nn3)c(=O)oc12 | 97% | 2.86 µM | 27.3 µM | 58% |
| CCOc1cccc2cc(CNCc3cn([C@H]4C[C@H](n5cc(C)c(=O)[nH]c5=O)O[C@@H]4CO)nn3)c(=O)oc12 | 21% | 114 µM | 23.3 µM | 62% |
| Cc1cn([C@H]2C[C@H](n3cc(CNCC(=O)N(Cc4ccccc4)Cc4cc5cc(Br)ccc5oc4=O)nn3)[C@@H](CO)O2)c(=O)[nH]c1=O | 94% | 4.24 µM | 32 µM | 52% |
| Cc1cn([C@H]2C[C@H](n3cc(CNCc4cc5ccccc5oc4=O)nn3)[C@@H](CO)O2)c(=O)[nH]c1=O | 92% | 5.59 µM | 27.1 µM | 61% |
